Where “and” joins values, the source holds several entries; their conditions need not be identical. Equal entries are not always repeated. HELM strings list units from the 5' end as sugar, base in round brackets, then linkage (d deoxyribose, r ribose, m 2'-O-methyl, p phosphodiester). Methylation of C is not given here. [moe] = 2'-O-(2-methoxyethyl) (MOE); [cEt] = constrained ethyl (cEt); [sp] = phosphorothioate linkage
Target: HBV
Conditions: ASO

Substance	target mRNA inhibition (HepG2, 0.07 µM)	also measured
RNA1{[moe](G)[sp].[cEt](C)[sp].d(A)[sp].d(G)[sp].d(T)[sp].d(A)[sp].d(T)[sp].d(G)[sp].d(G)[sp].d(A)[sp].d(T)[sp].d(C)[sp].[cEt](G)[sp].[moe](G)[sp].[cEt](C)[sp].[moe](A)}$$$$V2.0	83% and 90%	target mRNA inhibition (HepG2, 0.0092593 µM): 25%; target mRNA inhibition (HepG2, 0.0277778 µM): 44%; target mRNA inhibition (HepG2, 0.0833333 µM): 77%; target mRNA inhibition (HepG2, 0.25 µM): 89%
RNA1{[moe](G)[sp].[cEt](G)[sp].[cEt](C)[sp].d(A)[sp].d(G)[sp].d(A)[sp].d(G)[sp].d(G)[sp].d(T)[sp].d(G)[sp].d(A)[sp].d(A)[sp].d(A)[sp].[cEt](A)[sp].[cEt](A)[sp].[moe](G)}$$$$V2.0	50% and 49%	–
RNA1{[moe](G)[sp].[cEt](G)[sp].[cEt](C)[sp].d(A)[sp].d(T)[sp].d(A)[sp].d(G)[sp].d(C)[sp].d(A)[sp].d(G)[sp].d(C)[sp].d(A)[sp].d(G)[sp].[cEt](G)[sp].[cEt](A)[sp].[moe](T)}$$$$V2.0	75% and 64%	–
RNA1{[moe](G)[sp].[cEt](G)[sp].d(T)[sp].d(G)[sp].d(A)[sp].d(A)[sp].d(G)[sp].d(C)[sp].d(G)[sp].d(A)[sp].d(A)[sp].d(G)[sp].[cEt](T)[sp].[moe](G)[sp].[cEt](C)[sp].[moe](A)}$$$$V2.0	80% and 81%	target mRNA inhibition (HepG2, 0.0092593 µM): 22%; target mRNA inhibition (HepG2, 0.0277778 µM): 51%; target mRNA inhibition (HepG2, 0.0833333 µM): 82%; target mRNA inhibition (HepG2, 0.25 µM): 88%
RNA1{[moe](G)[sp].[cEt](T)[sp].[cEt](C)[sp].d(C)[sp].d(A)[sp].d(C)[sp].d(C)[sp].d(A)[sp].d(C)[sp].d(G)[sp].d(A)[sp].d(G)[sp].d(T)[sp].[cEt](C)[sp].[cEt](T)[sp].[moe](A)}$$$$V2.0	55% and 56%	–
RNA1{[moe](G)[sp].[cEt](T)[sp].[cEt](T)[sp].d(C)[sp].d(C)[sp].d(G)[sp].d(C)[sp].d(A)[sp].d(G)[sp].d(T)[sp].d(A)[sp].d(T)[sp].d(G)[sp].[cEt](G)[sp].[cEt](A)[sp].[moe](T)}$$$$V2.0	69% and 72%	–
RNA1{[moe](G)[sp].[cEt](T)[sp].d(T)[sp].d(C)[sp].d(C)[sp].d(G)[sp].d(C)[sp].d(A)[sp].d(G)[sp].d(T)[sp].d(A)[sp].d(T)[sp].[cEt](G)[sp].[moe](G)[sp].[cEt](A)[sp].[moe](T)}$$$$V2.0	76% and 53%	–
RNA1{[moe](G)[sp].[moe](A)[sp].[moe](A)[sp].[moe](C)[sp].[moe](T)[sp].d(G)[sp].d(G)[sp].d(A)[sp].d(G)[sp].d(C)[sp].d(C)[sp].d(A)[sp].d(C)[sp].d(C)[sp].[moe](A)[sp].[moe](G)}$$$$V2.0	46% and 39%	–
RNA1{[moe](G)[sp].[moe](A)[sp].[moe](A)[sp].[moe](G)[sp].[moe](C)[sp].[moe](G)[sp].d(A)[sp].d(A)[sp].d(G)[sp].d(T)[sp].d(G)[sp].d(C)[sp].d(A)[sp].d(C)[sp].d(A)[sp].[moe](C)[sp].[moe](G)}$$$$V2.0	87% and 66%	–
RNA1{[moe](G)[sp].[moe](A)[sp].[moe](A)[sp].[moe](G)[sp].[moe](T)[sp].[moe](C)[sp].d(C)[sp].d(A)[sp].d(C)[sp].d(C)[sp].d(A)[sp].d(C)[sp].d(G)[sp].d(A)[sp].d(G)[sp].[moe](T)[sp].[moe](C)}$$$$V2.0	42%	–
RNA1{[moe](G)[sp].[moe](A)[sp].[moe](A)[sp].[moe](G)[sp].[moe](T)[sp].d(C)[sp].d(C)[sp].d(A)[sp].d(C)[sp].d(C)[sp].d(A)[sp].d(C)[sp].d(G)[sp].d(A)[sp].[moe](G)[sp].[moe](T)[sp].[moe](C)}$$$$V2.0	5% and 2%	–
RNA1{[moe](G)[sp].[moe](A)[sp].[moe](A)[sp].d(C)[sp].d(C)[sp].d(A)[sp].d(C)[sp].d(T)[sp].d(G)[sp].d(A)[sp].d(A)[sp].d(C)[sp].[moe](A)[sp].[moe](A)[sp].[moe](A)[sp].[moe](T)[sp].[moe](G)}$$$$V2.0	39% and 47%	–
RNA1{[moe](G)[sp].[moe](A)[sp].[moe](A)[sp].d(C)[sp].d(C)[sp].d(A)[sp].d(C)[sp].d(T)[sp].d(G)[sp].d(A)[sp].d(A)[sp].d(C)[sp].[moe](A)[sp].[moe](A)[sp].[moe](A)[sp].[moe](T)}$$$$V2.0	46% and 42%	–
RNA1{[moe](G)[sp].[moe](A)[sp].[moe](A)[sp].d(C)[sp].d(C)[sp].d(A)[sp].d(C)[sp].d(T)[sp].d(G)[sp].d(A)[sp].d(A)[sp].d(C)[sp].d(A)[sp].[cEt](A)[sp].[cEt](A)[sp].[cEt](T)}$$$$V2.0	30% and 48%	–
RNA1{[moe](G)[sp].[moe](A)[sp].[moe](A)[sp].d(C)[sp].d(T)[sp].d(G)[sp].d(G)[sp].d(A)[sp].d(G)[sp].d(C)[sp].d(C)[sp].d(A)[sp].d(C)[sp].[cEt](C)[sp].[cEt](A)[sp].[cEt](G)}$$$$V2.0	59% and 58%	–
RNA1{[moe](G)[sp].[moe](A)[sp].[moe](A)[sp].d(G)[sp].d(C)[sp].d(G)[sp].d(A)[sp].d(A)[sp].d(G)[sp].d(T)[sp].d(G)[sp].d(C)[sp].[moe](A)[sp].[moe](C)[sp].[moe](A)[sp].[moe](C)}$$$$V2.0	52% and 50%	–

Substance	target mRNA inhibition (HepG2, 0.07 µM)	also measured
RNA1{[moe](G)[sp].[moe](A)[sp].[moe](A)[sp].d(G)[sp].d(C)[sp].d(G)[sp].d(A)[sp].d(A)[sp].d(G)[sp].d(T)[sp].d(G)[sp].d(C)[sp].d(A)[sp].[cEt](C)[sp].[cEt](A)[sp].[cEt](C)}$$$$V2.0	67%	–
RNA1{[moe](G)[sp].[moe](A)[sp].[moe](G)[sp].[moe](G)[sp].[moe](T)[sp].[moe](G)[sp].d(A)[sp].d(A)[sp].d(G)[sp].d(C)[sp].d(G)[sp].d(A)[sp].d(A)[sp].d(G)[sp].d(T)[sp].[moe](G)[sp].[moe](C)}$$$$V2.0	75% and 52%	–
RNA1{[moe](G)[sp].[moe](A)[sp].[moe](G)[sp].[moe](G)[sp].d(C)[sp].d(A)[sp].d(T)[sp].d(A)[sp].d(G)[sp].d(C)[sp].d(A)[sp].d(G)[sp].d(C)[sp].[moe](A)[sp].[moe](G)[sp].[moe](G)[sp].[moe](A)}$$$$V2.0	35%	–
RNA1{[moe](G)[sp].[moe](A)[sp].[moe](G)[sp].[moe](T)[sp].[moe](T)[sp].d(C)[sp].d(C)[sp].d(G)[sp].d(C)[sp].d(A)[sp].d(G)[sp].d(T)[sp].d(A)[sp].d(T)[sp].[moe](G)[sp].[moe](G)[sp].[moe](A)}$$$$V2.0	75% and 56%	–
RNA1{[moe](G)[sp].[moe](A)[sp].[moe](G)[sp].d(A)[sp].d(A)[sp].d(G)[sp].d(T)[sp].d(C)[sp].d(C)[sp].d(A)[sp].d(C)[sp].d(C)[sp].d(A)[sp].[cEt](C)[sp].[cEt](G)[sp].[cEt](A)}$$$$V2.0	60% and 71%	–
RNA1{[moe](G)[sp].[moe](A)[sp].[moe](G)[sp].d(A)[sp].d(G)[sp].d(A)[sp].d(A)[sp].d(G)[sp].d(T)[sp].d(C)[sp].d(C)[sp].d(A)[sp].d(C)[sp].[cEt](C)[sp].[cEt](A)[sp].[cEt](C)}$$$$V2.0	38% and 23%	–
RNA1{[moe](G)[sp].[moe](A)[sp].[moe](G)[sp].d(G)[sp].d(C)[sp].d(A)[sp].d(T)[sp].d(A)[sp].d(G)[sp].d(C)[sp].d(A)[sp].d(G)[sp].[moe](C)[sp].[moe](A)[sp].[moe](G)[sp].[moe](G)[sp].[moe](A)}$$$$V2.0	66% and 57%	–
RNA1{[moe](G)[sp].[moe](A)[sp].[moe](G)[sp].d(G)[sp].d(C)[sp].d(A)[sp].d(T)[sp].d(A)[sp].d(G)[sp].d(C)[sp].d(A)[sp].d(G)[sp].d(C)[sp].[moe](A)[sp].[moe](G)[sp].[moe](G)}$$$$V2.0	–	target mRNA inhibition (HepG2, 0.0092593 µM): 4%; target mRNA inhibition (HepG2, 0.0277778 µM): 24%; target mRNA inhibition (HepG2, 0.0833333 µM): 49%; target mRNA inhibition (HepG2, 0.25 µM): 67%
RNA1{[moe](G)[sp].[moe](A)[sp].[moe](G)[sp].d(G)[sp].d(T)[sp].d(G)[sp].d(A)[sp].d(A)[sp].d(G)[sp].d(C)[sp].d(G)[sp].d(A)[sp].[moe](A)[sp].[moe](G)[sp].[moe](T)[sp].[moe](G)}$$$$V2.0	57% and 54%	–
RNA1{[moe](G)[sp].[moe](A)[sp].[moe](G)[sp].d(G)[sp].d(T)[sp].d(G)[sp].d(A)[sp].d(A)[sp].d(G)[sp].d(C)[sp].d(G)[sp].d(A)[sp].d(A)[sp].[cEt](G)[sp].[cEt](T)[sp].[cEt](G)}$$$$V2.0	67% and 57%	–
RNA1{[moe](G)[sp].[moe](A)[sp].[moe](G)[sp].d(T)[sp].d(T)[sp].d(C)[sp].d(C)[sp].d(G)[sp].d(C)[sp].d(A)[sp].d(G)[sp].d(T)[sp].d(A)[sp].[cEt](T)[sp].[cEt](G)[sp].[cEt](G)}$$$$V2.0	70% and 62%	–
RNA1{[moe](G)[sp].[moe](A)[sp].[moe](T)[sp].[moe](G)[sp].[moe](A)[sp].d(G)[sp].d(G)[sp].d(C)[sp].d(A)[sp].d(T)[sp].d(A)[sp].d(G)[sp].d(C)[sp].d(A)[sp].[moe](G)[sp].[moe](C)}$$$$V2.0	45% and 31%	–
RNA1{[moe](G)[sp].[moe](A)[sp].d(A)[sp].d(G)[sp].d(T)[sp].d(C)[sp].d(C)[sp].d(A)[sp].d(C)[sp].d(C)[sp].d(A)[sp].[moe](C)[sp].[moe](G)[sp].[moe](A)[sp].[moe](G)[sp].[moe](T)[sp].[moe](C)}$$$$V2.0	66% and 49%	–
RNA1{[moe](G)[sp].[moe](A)[sp].d(G)[sp].d(G)[sp].d(C)[sp].d(A)[sp].d(T)[sp].d(A)[sp].d(G)[sp].d(C)[sp].d(A)[sp].[moe](G)[sp].[moe](C)[sp].[moe](A)[sp].[moe](G)[sp].[moe](G)}$$$$V2.0	0%	–
RNA1{[moe](G)[sp].[moe](A)[sp].d(G)[sp].d(G)[sp].d(T)[sp].d(G)[sp].d(A)[sp].d(A)[sp].d(G)[sp].d(C)[sp].d(G)[sp].[moe](A)[sp].[moe](A)[sp].[moe](G)[sp].[moe](T)[sp].[moe](G)}$$$$V2.0	51% and 46%	–
RNA1{[moe](G)[sp].[moe](C)[sp].[moe](A)[sp].[moe](C)[sp].d(T)[sp].d(A)[sp].d(G)[sp].d(T)[sp].d(A)[sp].d(A)[sp].d(A)[sp].d(C)[sp].d(T)[sp].[moe](G)[sp].[moe](A)[sp].[moe](G)[sp].[moe](C)}$$$$V2.0	55% and 47%	–

From the OligoGym collection
